Laboratory results from patent US20180264001A1 (Teva Pharmaceuticals International GmbH, priority 2015, published 2018).

Conditions: Canine plasma +1% Tocophersolan, 37° C.
Experimental: Samples were protected from light under constant agitation using a vortex mixer. The stability of the API under these conditions was assessed at timed intervals (T=0, 2, 4, 21, 24 hours and 2 and 3 days).

Cc1cc2c(s1)Nc1ccccc1N=C2N1CCN(C)CC1.O.O=C(O)c1cc2ccccc2c(Cc2c(O)c(C(=O)O)cc3ccccc23)c1O [olanzapine pamoate monohydrate]
Concentration (saturated solubility): 817.47 µg/mL
